In PMC11855827, “High-Throughput Screening of Five Compound Libraries for Anthelmintic Activity and Toxicity Leads to the Discovery of Two Flavonoid Compounds” (International Journal of Molecular Sciences, 2025) one finds inhibition data, which are given here for 20 molecules.

The assay relates to C. elegans. Kind of assay: microbe, parasite or virus in culture. The following applies: Caenorhabditis elegans.
Setting [1] is: 0 h, read-out: Percentage of motility inhibition 0 h, Table S2, C. elegans SS assay, 110 μM, 0 h, averages of 4 data points.
Setting [2] is: 24 h, read-out: Percentage of motility inhibition 24 h, Table S2, C. elegans SS assay, 110 μM, 24 h, averages of 4 data points.
The mark [3] stands for this setting: 0 h, read-out: Percentage of motility inhibition 0 h.
Where [4] appears, read: 24 h, read-out: Percentage of motility inhibition 24 h.

Where two headings read alike, the source gives them in different places.

`C=C1[C@@H](O)[C@]2(O)OC[C@]34[C@H]2[C@@]2(C)[C@H](O)C(=O)C=C(C)[C@@H]2C[C@H]3OC(=O)[C@H](O)[C@@]14O` [Eurycomanone]: the inhibition at 110 µM was found to be 0% under setting [1] and 4% under setting [2].

`O=c1c(O)c(-c2cc(O)c(O)c(O)c2)oc2cc(O)ccc12` [Robinetin]: the inhibition at 110 µM was 39% under setting [1] and 7% under setting [2].

As to `CC1=C[C@H](O)CC(C)(C)[C@H]1/C=C/C(C)=C/C=C/C(C)=C/C=C/C=C(C)/C=C/C=C(C)/C=C/C1=C(C)C[C@@H](O)CC1(C)C` [Lutein], the inhibition at 110 µM is, setting by setting: under setting [3], 13%; under setting [4], 0%.

Take `O=C(Nc1ccccc1)c1ccccc1O` [Salicylanilide]: the inhibition at 110 µM was found to be 43% under setting [1] and 21% under setting [2].

In the case of `Cc1cccc(C)c1OCC(=O)N[C@@H](Cc1ccccc1)[C@@H](O)C[C@H](Cc1ccccc1)NC(=O)[C@H](C(C)C)N1CCCNC1=O` [Lopinavir], the inhibition at 110 µM reads like this: under setting [1], 17%; under setting [2], 14%.

Turning to `COc1ccc2c(OC)c3ccoc3nc2c1OC` [Skimmianine], the inhibition at 110 µM was determined as 0% under setting [1] and 15% under setting [2].

`COc1ccc(-c2oc3c(CC=C(C)C)c(O)cc(O)c3c(=O)c2O)cc1` [Icaritin]: the inhibition at 110 µM is, setting by setting: under setting [1], 0%; under setting [2], 2%.

For `C=CC(C)(O)CCC=C(C)C` (stereo not shown) [Linalool], the inhibition at 110 µM under setting [3] stood at 14% and the inhibition at 110 µM under setting [4] turned out to be 20%.

Turning to `C[C@@H]1O[C@@H](OC[C@H]2O[C@@H](Oc3c(-c4ccc(O)c(O)c4)oc4cc(O)cc(O)c4c3=O)[C@H](O)[C@@H](O)[C@@H]2O)[C@H](O)[C@H](O)[C@H]1O` [Rutin], the inhibition at 110 µM under setting [1] was determined as 4% and the inhibition at 110 µM under setting [2] is 0%.

With `COC1=CC(=O)C[C@@H](C)[C@]12Oc1c(Cl)c(OC)cc(OC)c1C2=O` [Griseofulvin], the inhibition at 110 µM was determined as 3% under setting [1] and 1% under setting [2].

For `CC1(C)CC[C@]2(C(=O)O[C@@H]3O[C@H](CO)[C@@H](O)[C@H](O)[C@H]3O)CC[C@]3(C)C(=CC[C@@H]4[C@@]5(C)CC[C@H](O[C@@H]6O[C@H](C(=O)O)[C@@H](O)[C@H](O)[C@H]6O)C(C)(C)[C@@H]5CC[C@]43C)[C@@H]2C1` [Chikusetsusaponin Iva], the inhibition at 110 µM is 5% under setting [1] and 14% under setting [2].

Regarding `C[C@@H]1O[C@@H](OC[C@H]2O[C@@H](Oc3cc(O)c4c(c3)O[C@H](c3ccc(O)c(O)c3)CC4=O)[C@H](O)[C@@H](O)[C@@H]2O)[C@H](O)[C@H](O)[C@H]1O` [Eriocitrin], the inhibition at 110 µM worked out at 54% under setting [1] and 16% under setting [2].

As to `CC(=O)OCC(CCn1cnc2cnc(N)nc21)COC(C)=O` [Famciclovir], the inhibition at 110 µM worked out at 15% under setting [1] and 2% under setting [2].

Take `CC(=O)OCC1=CO[C@@H](OC(=O)CC(C)C)[C@H]2C1=C[C@H](OC(=O)CC(C)(C)OC(C)=O)[C@]21CO1` [Acevaltrate]: the inhibition at 110 µM was 7% under setting [3] and 21% under setting [4].

Turning to `COc1ccc(-c2cc(=O)c3c(O)cc(O)cc3o2)cc1O` [Diosmetin], the inhibition at 110 µM came out at 13% under setting [3] and 0% under setting [4].

For `O=C1C=CC(=O)N1` [Maleimide], the inhibition at 110 µM under setting [1] is 25% and the inhibition at 110 µM under setting [2] turned out to be 32%.

As to `COc1ccc(-c2oc3cc(O)cc(O)c3c(=O)c2O)cc1O` [Tamarixetin], the inhibition at 110 µM runs as follows: under setting [1], 20%; under setting [2], 10%.

With `O=c1c2ccccc2nc2n1CCc1c-2[nH]c2ccccc12` [Rutaecarpine], the inhibition at 110 µM by setting is: under setting [1], 0%; under setting [2], 24%.

As to `O=c1cccc2n1C[C@H]1C[C@@H]2CN2CCCC[C@H]12` [Anagyrine], the inhibition at 110 µM under setting [1] turned out to be 14% and the inhibition at 110 µM under setting [2] turned out to be 6%.

For `CC1=CC(=O)[C@@H]2C[C@H]1C2(C)C` [Verbenone], the inhibition at 110 µM by setting is: under setting [1], 4%; under setting [2], 4%.

For orientation: inhibition means the relative decrease from the control value, in per cent.
